This note sets out measurements from the supplement of paper PMC5579334.

± gives the standard deviation of the averaged measurements.

For experiment [1], the system named is YST-1. Put plainly: drug sensitivity score (DSS, CellTiter-Glo viability, 72 h) (DSS (dimensionless)); higher = more sensitive; extreme values may be limits of the assay. The procedure, abridged: (§1)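 MPNST cell lines and primary human Schwann cells (750–1000 cells per well) went into 384-well plates preprinted with each compound at five concentrations in 10-fold steps. Plates were incubated 72 h at 37 °C, 5% CO2. Viability was read as CellTiter-Glo ATP luminescence, scaled between vehicle and positive-control wells, with duplicates averaged where present. Percent inhibition is at the top concentration; drug sensitivity score and relative IC50 (censored at top concentration) come from four-parameter logistic fits.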
A general note: Cellular ATP, detected with luciferase, serves as a proxy for viable cell number.

Experiment [2] has as its system HSC2 (primary human Schwann cells). The description is as above. In outline:
as §1

In experiment [3] the test system is S1507-2. The description is as above. The procedure, abridged:
as §1

Experiment [4] relates to S462. The experiment is described as above. In outline: as §1
The test system of experiment [5] is STS26T. The description is as above. The procedure, abridged: as §1
For experiment [6], the system named is ST8814. The description is as above. In outline: as §1
In experiment [7] the test system is HS-Sch-2. The description is as above. The procedure, abridged:
as §1

Experiment [8] deals with HS-PSS. The experiment is described as above. In outline: as §1
Experiment [9] deals with HSC1 (primary human Schwann cells). Described as above. The procedure, abridged:
as §1

Experiment [10] concerns YST-1. Description: % inhibition of CellTiter-Glo viability at highest tested concentration (72 h), relative to DMSO and benzethonium chloride controls; higher = more inhibition. In outline:
as §1

Experiment [11] has as its system HSC2 (primary human Schwann cells). The description is as above. In outline:
as §1

Experiment [12] concerns S1507-2. The experiment is described as above. The procedure, abridged:
as §1

For experiment [13], the system named is S462. Described as above. In outline:
as §1

Experiment [14] relates to STS26T. The experiment is described as above. The procedure, abridged: as §1
Experiment [15] relates to ST8814. Described as above. In outline:
as §1

In experiment [16] the test system is HS-Sch-2. The experiment is described as above. In outline:
as §1

For experiment [17], the system named is HS-PSS. Described as above. The procedure, abridged:
as §1

The test system of experiment [18] is HSC1 (primary human Schwann cells). The experiment is described as above. In outline:
as §1

The test system of experiment [19] is HSC2 (primary human Schwann cells). Put plainly: drug sensitivity score (DSS, CellTox-Green cytotoxicity, 72 h) (DSS (dimensionless)); higher = more cytotoxic; extreme values may be limits of the assay. The procedure, abridged:
(§2)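 MPNST cell lines and primary human Schwann cells were incubated 72 h at 37 °C in 384-well plates holding five 10-fold compound dilutions. CellTox-Green was added before seeding at a final 1:1000 dilution and reported fluorescence from DNA released by disrupted cells. Signals were scaled to vehicle and positive-control wells, and cultures failing plate quality control were dropped. Drug sensitivity score and relative IC50 come from four-parameter logistic fits, with IC50 censored at the top concentration.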

Experiment [20] has as its system S1507-2. Described as above. The procedure, abridged: as §2
Experiment [21] concerns STS26T. The description is as above. The procedure, abridged: as §2
The test system of experiment [22] is ST8814. Described as above. In outline: as §2
The test system of experiment [23] is HS-PSS. Described as above. The procedure, abridged:
as §2

Experiment [24] concerns HSC1 (primary human Schwann cells). The description is as above. The procedure, abridged: as §2

The % inhibition is the change of the read-out against control, counted positive when it falls.

For `CN1CCN(c2ccc3nc(-c4c(N)c5c(F)cccc5[nH]c4=O)[nH]c3c2)CC1` [Dovitinib] (max concentration tested 10000 nM), the drug sensitivity score in the experiment with YST-1 [1] stood at 0.32; in [2], 0.382; in the experiment on S1507-2 [3], 3.54 ± 3.6; in the experiment with S462 [4], 0.655 ± 0.32; with STS26T [5], 0.0001; with ST8814 [6] it was 0. Moreover, the drug sensitivity score in the experiment on HS-Sch-2 [7] was determined as 0.84; with HS-PSS [8] it was 0; in [9], 1.65; in experiment [19] it was 0; in the experiment on S1507-2 [20], 0; in the experiment with STS26T [21], 0. Also, the drug sensitivity score (with ST8814 [22]; in the experiment with HS-PSS [23]; in experiment [24]) was 0 in each case. For the same compound, the “% inhibition” value in the experiment with YST-1 [10] was 17.6%; in [11], 16.2%; in the experiment with S1507-2 [12], 21.7 ± 2.2%; with S462 [13], 18.1 ± 0.51%; in the experiment on STS26T [14], 10.4%; in the experiment with ST8814 [15], -2.1%. Moreover, the “% inhibition” value is 22.3% in the experiment with HS-Sch-2 [16], -2.95% in the experiment with HS-PSS [17] and 19.1% in experiment [18].
Consider `COc1cccc2c1C(=O)c1c(O)c3c(c(O)c1C2=O)C[C@@](O)(C(=O)CO)C[C@@H]3O[C@H]1C[C@H](N)[C@H](O)[C@H](C)O1` [Doxorubicin] (max concentration tested 1000 nM), for which the drug sensitivity score was 13.9 with YST-1 [1]; 11.2 in experiment [2]; 10.6 ± 1.9 with S1507-2 [3]; 13.1 ± 0.35 in the experiment with S462 [4]; 12.7 in the experiment on STS26T [5]; 9.59 in the experiment on ST8814 [6]. Further, the drug sensitivity score turned out to be 10.2 with HS-Sch-2 [7]; 7.71 in the experiment with HS-PSS [8]; 11.9 in [9]; 18 in experiment [19]; 0.0502 ± 0.071 in the experiment with S1507-2 [20]; 0.331 in the experiment on STS26T [21]. Also, the drug sensitivity score in the experiment with ST8814 [22] turned out to be 0; in the experiment with HS-PSS [23] it was 0.81; in [24] it was 0.0904. Further, the “% inhibition” value with YST-1 [10] stood at 98.3%; in experiment [11], 99.6%; in the experiment on S1507-2 [12], 83.5 ± 6.7%; in the experiment with S462 [13], 98.561 ± 0.012%; in the experiment on STS26T [14], 98.4%; in the experiment with ST8814 [15] it was 96.1%. Moreover, the “% inhibition” value was found to be 100% with HS-Sch-2 [16], 96.1% in the experiment with HS-PSS [17] and 99.1% in experiment [18].
Turning to `Nc1ccccc1NC(=O)c1ccc(CNC(=O)OCc2cccnc2)cc1` [Entinostat] (max concentration tested 10000 nM), the drug sensitivity score with YST-1 [1] is 10.3; in experiment [2], 4.87; in the experiment on S1507-2 [3], 4.79 ± 0.3; in the experiment with S462 [4], 9.84 ± 0.75; in the experiment with STS26T [5], 4.35; with ST8814 [6], 4.2. The drug sensitivity score with HS-Sch-2 [7] worked out at 4.13; in the experiment on HS-PSS [8], 2.31; in [9] it was 5.09; in [19] it was 0; in the experiment with S1507-2 [20], 2.98 ± 1.3; in the experiment on STS26T [21] it was 0.625. Moreover, the values for the drug sensitivity score (in the experiment with ST8814 [22]; in the experiment with HS-PSS [23]; in [24]) were 2.69, 0.63 and 0, respectively. Moreover, the “% inhibition” value was 97.7% in the experiment on YST-1 [10]; 73% in experiment [11]; 74.9 ± 7.7% in the experiment on S1507-2 [12]; 105.3 ± 0.38% in the experiment on S462 [13]; 69.3% in the experiment with STS26T [14]; 87.7% in the experiment with ST8814 [15]. Besides, the entries for the “% inhibition” value (in the experiment on HS-Sch-2 [16]; in the experiment with HS-PSS [17]; in experiment [18]) were 79.7%, 52% and 71.2%, respectively.
With `CNC(=O)c1ccc(N2C(=S)N(c3ccc(C#N)c(C(F)(F)F)c3)C(=O)C2(C)C)cc1F` [Enzalutamide] (max concentration tested 10000 nM), the drug sensitivity score amounted to 0 in the experiment on YST-1 [1]; 0 in experiment [2]; 1.03 ± 1.4 in the experiment on S1507-2 [3]; 0 in the experiment on S462 [4]; 0 in the experiment with STS26T [5]; 0.0064 in the experiment with ST8814 [6]. Moreover, the drug sensitivity score was 0 in the experiment with HS-Sch-2 [7]; 0 in the experiment on HS-PSS [8]; 0.165 in experiment [9]; 0 in [19]; 2.11 ± 3 with S1507-2 [20]; 0 with STS26T [21]. Moreover, the drug sensitivity score (in the experiment on ST8814 [22]; with HS-PSS [23]; in experiment [24]) was 0 each time. The “% inhibition” value was 4.16% in the experiment with YST-1 [10]; -3.12% in experiment [11]; 14.2 ± 18% in the experiment with S1507-2 [12]; -3 ± 1.3% in the experiment on S462 [13]; 3.2% with STS26T [14]; 11.6% with ST8814 [15]. The “% inhibition” value in the experiment on HS-Sch-2 [16] was -3.43%; in the experiment with HS-PSS [17] it was 7.35%; in [18], 14.3%.
`Cn1cc(C2=C(c3cn(C4CCN(Cc5ccccn5)CC4)c4ccccc34)C(=O)NC2=O)c2ccccc21` [Enzastaurin] (max concentration tested 10000 nM): the drug sensitivity score stood at 0 in the experiment with YST-1 [1]; 1.06 in [2]; 3.15 ± 2.5 with S1507-2 [3]; 0.0347 ± 0.049 in the experiment with S462 [4]; 1.09 in the experiment on STS26T [5]; 0.0668 in the experiment with ST8814 [6]. For the same compound, the drug sensitivity score in the experiment with HS-Sch-2 [7] stood at 0.28; in the experiment on HS-PSS [8], 3.43; in experiment [9], 1.32; in experiment [19], 0; in the experiment with S1507-2 [20], 0; with STS26T [21], 0.0176. The drug sensitivity score (in the experiment on ST8814 [22]; with HS-PSS [23]; in [24]) was 0 in each case. The “% inhibition” value in the experiment on YST-1 [10] was -1.13%; in experiment [11], 25.1%; in the experiment on S1507-2 [12], 26.9 ± 3.6%; in the experiment with S462 [13], 10.8 ± 2.6%; in the experiment with STS26T [14], 19.9%; with ST8814 [15], 12.8%. Besides, the “% inhibition” value in the experiment on HS-Sch-2 [16] is 12.3%; in the experiment on HS-PSS [17], 11.3%; in experiment [18], 21.8%.
Consider `C#Cc1cccc(Nc2ncnc3cc(OCCOC)c(OCCOC)cc23)c1` [Erlotinib] (max concentration tested 10000 nM), for which the drug sensitivity score in the experiment with YST-1 [1] was found to be 5.25; in experiment [2], 5.39; with S1507-2 [3], 1.85 ± 2; in the experiment on S462 [4], 3.86 ± 0.29; in the experiment on STS26T [5], 2.29; in the experiment with ST8814 [6], 1.41. The drug sensitivity score with HS-Sch-2 [7] turned out to be 5.08; in the experiment on HS-PSS [8] it was 3.63; in experiment [9], 5.2; in [19] it was 0; with S1507-2 [20], 0; in the experiment on STS26T [21] it was 0. Moreover, the drug sensitivity score (with ST8814 [22]; with HS-PSS [23]; in experiment [24]) was 0 in each case. The “% inhibition” value was determined as 56.7% in the experiment with YST-1 [10]; 74.7% in experiment [11]; 26.3 ± 10% with S1507-2 [12]; 54.5 ± 2.7% in the experiment on S462 [13]; 33.2% in the experiment with STS26T [14]; 31.1% in the experiment on ST8814 [15]. The “% inhibition” value in the experiment with HS-Sch-2 [16] is 55.9%; in the experiment with HS-PSS [17] it was 48.6%; in experiment [18], 73.1%.
